{
  "source": "patent US20010047524A1",
  "about": "“Methods and tissue culture media for inducing somatic embryogenesis, agrobacterium-mediated transformation and efficient regeneration of cacao plants” (priority 1997, published 2001)",
  "system": "staminode and petal base explants of cacao genotype Sca-6",
  "assay": "Somatic embryogenesis from cacao floral explants cultured on PCG medium containing various concentrations of TDZ",
  "format": "cell-based, Theobroma cacao L.",
  "procedure": "Primary callus growth (PCG) medium was prepared by combining the following solutions and compounds (per liter): 100 ml each DKW macro solutions A and B, 10 ml DKW micro solution, 1 ml DKW vitamin solution, 20 g glucose, 250 mg glutamine, 100 mg myo-inositol, 100 ml 2,4-D solution, 10 ml TDZ solution, and 2.0 g phytagel, and the pH was adjusted to 5.8.\nThe staminodes and petal base explants from the four flower buds were then transferred into a Petri dish containing 30 ml of PCG medium. Any fused staminodes and petal base explants were separated and explants were distributed evenly across the medium. The Petri dishes were sealed with a double layer of parafilm and cultures were maintained in the dark at 25±2° C. for 14 days (FIG. 2a). Growth reduction, senescence, and tissue browning may occur with subculture intervals longer than 14 days.\nThe staminode and petal base explants were then transferred from a PCG medium to a Petri dish containing 30 ml of SCG medium. The dishes were sealed and the cultures were maintained in the dark for 14 days at 25±2° C. Globular calli were produced on the entire tissue explant at the end of this culture period (FIG. 2b).\nStaminode and petal base explants and calli derived in the callus induction step were transferred to Petri dishes containing 30 ml of ED medium. Explants were cultured in the dark for 14 days at 25±2° C. Explants were then subcultured onto the fresh ED medium and maintained in the dark for another 14 days. By that time, numerous somatic embryos at globular and heart-shaped stages of development were visible on the embryogenic calli (FIG. 2c and d).\nThe effect of TDZ concentration on somatic embryogenesis from staminode explants of five cacao genotypes was determined and is shown in FIG. 3. Staminodes were cultured on PCG medium containing various concentrations of TDZ. […] Data were collected two months after culture initiation. Each treatment contained 20 staminodes per plate with three replicate plates. The values shown in FIG. 3 represent the average percentage rates of embryo-producing staminodes from three repeated experiments. Up to 100% of cultured staminode and over 60% of petal base explants from cacao genotype Sca-6 produced somatic embryos (FIG. 3).\nThe effect of TDZ concentration on somatic embryo production from staminode explants of five cacao genotypes was determined and is shown in FIG. 4. Staminodes were cultured on PCG medium containing various concentrations of TDZ. […] Data were collected two months after culture initiation. Each treatment contained 20 staminodes per plate with three replica plates. Values represent the average number of somatic embryos per responsive staminode from three repeated experiments. […]",
  "key": {"[1]": {"settings": "two months after culture initiation, FIG. 4"}},
  "data": [
    {"molecule": "O=C(Nc1ccccc1)Nc1cnns1", "note": "[TDZ, thidiazuron]", "values": [
      {"measurement": "petal base explants that produced somatic embryos", "setting": "FIG. 3", "value": "over 60%"},
      {"measurement": "cultured staminode explants that produced somatic embryos", "setting": "PCG medium with various TDZ concentrations, then SCG and ED medium, two months after culture initiation, FIG. 3", "value": "Up to 100%"},
      {"measurement": "average number of primary somatic embryos per responsive staminode", "setting": "[1]", "value": "about 46"},
      {"measurement": "primary somatic embryos produced by a single staminode explant (maximum)", "setting": "[1]", "value": "up to 140"}
    ]}
  ]
}
